The values that follow come from US12329160B2, “Activated ferrate compositions” (THE TEXAS A & M UNIVERSITY SYSTEM, priority 2018, dated 2025).

Assay [1] is described as follows: Elimination of six pharmaceuticals by Fe^VI—S2O3^2− in lake water (Lake Bryan). In kind it is physicochemical. The settings on record: mixture 1.0 μM each, [S2O3^2−]:[Fe^VI] 0.125, Fe^VI 150.0 μM, pH 8.0, 30 seconds. As for the experimental part:
(§1) The contaminants are: carbamazepine (CMZ), diclofenac (DCF), enrofloxacin (ENR), propranolol (PPN), sulfadimethoxine (SMX), and trimethoprim (TMP). Experimental conditions: [Each contaminant]0 in mixture of samples=1.0 μM, [Fe^VI]0:[Total contaminants]=25:1, [S2O3^2−]0:[Fe^VI]0=0.125, [Fe^VI]0=150.0 μM, [S2O3^2−]0=18.75 μM, pH=8.00±0.05, reaction time=30 s).
(§2) The stock solutions of these contaminants (10.0 μM) were prepared in 10.0 mM Na2HPO4, and diluted using the same buffer solution before the removal experiments. […] Solutions of Fe^VI were prepared by adding K2FeO4 powders to 5.0 mM Na2HPO4/1.0 mM Na2B4O7.10H2O buffer solution. The concentrations of Fe^VI were quantitatively measured using an UV-visible spectrometer at a wavelength of 510 nm with a molar absorption coefficient of ε510 nm=1150 M^−1 cm^−1: The pH value of the contaminant solutions was adjusted to 7.50 via the addition of diluted H3PO4 before mixing with Fe^VI solution to achieve the desired reaction pH at 8.00±0.04. Methanol and phosphoric acid (85%) of high performance liquid chromatography (HPLC) grade were used in testing. 5,5-dimethyl-1-pyrroline-N-oxide (DMPO) was used as the spin trap reagent for identifying the possible reactive inorganic radicals (e.g., .OH and/or SO4.^−) in the oxidation system. All the other chemicals (e.g., hydroxylamine and permanganate) were provided from commercial sources and used without further purification. Two kinds of natural water samples were individually obtained from Brazos River (N 30°42′33″, E 96°28′5″, College Station, Texas) and Lake Bryan (N 30°33′30″, E 96°25′25″, Bryan, Texas). […] These real water samples were filtered through 0.45 μm hydrophilic PVDF membrane to remove the insoluble particles before spiking the contaminant mixtures (1.0 μM for each compound). 20.0 mM borate buffer was used to stabilize the solution pH of the real waters at 8.00±0.04. All the other solutions were prepared using the ultrapure water (resistivity >18 MΩ cm^−1).
(§3) Experiments were conducted in a series of 100 mL glass jars under constant stirring rate (400 rpm) with a magnetic stirrer. Oxidation of each contaminant or their mixtures by Fe^VI with or without S2O3^2− was initiated by mixing equal solution volumes of 10 mL, and the final reaction solutions were kept at 8.00±0.04. The concentration of Fe^VI was maintained at 100.0 μM, and the ratios of [S2O3^2−]:[Fe^VI] in the system were varied from 0 to 5.0 for aqueous removal of TMP (5.0 μM). […] After 30 seconds of oxidation, 20.0 μL NH2OH solution (1 M) was added to quench the reactions. Samples were transferred into high performance liquid chromatography (HPLC) vials, and were subsequently analyzed using the HPLC method. Similar experiments using TMP as a target contaminant were also performed by replacing Fe^VI with Mn^VII or chlorine under the same conditions. All experiments were carried out at room temperature, and were at least in triplicates.
For the chromatographic separation of six contaminant mixtures (CMZ, DCF, ENR, PPN, SMX, and TMP), a solvent gradient method was used with flow rate of 0.8 mL/min. This method started with 35% B (0-7.5 min), followed by 35% B to 55% B (7.5-10.5 min), 55% B to 70% B (10.5-15.5 min), 70% B to 90% B (15.5-18.5 min), 90% B (18.5-25.0 min), 90% B to 35% B (25.0-25.5 min) and post-equilibration at 35% B (25.5-33.0 min).

A short description of assay [2]: Elimination of six pharmaceuticals by Fe^VI—S2O3^2− in river water (Brazos River). It is filed as physicochemical. The settings on record: mixture 1.0 μM each, [S2O3^2−]:[Fe^VI] 0.125, Fe^VI 150.0 μM, pH 8.0, 30 seconds. As for the experimental part:
as §1
The stock solutions of these contaminants (10.0 μM) were prepared in 10.0 mM Na2HPO4, and diluted using the same buffer solution before the removal experiments. Potassium ferrate (K2FeO4, purity >90%) was prepared using a wet chemical synthesis method. Solutions of Fe^VI were prepared by adding K2FeO4 powders to 5.0 mM Na2HPO4/1.0 mM Na2B4O7.10H2O buffer solution. The concentrations of Fe^VI were quantitatively measured using an UV-visible spectrometer at a wavelength of 510 nm with a molar absorption coefficient of ε510 nm=1150 M^−1 cm^−1: The pH value of the contaminant solutions was adjusted to 7.50 via the addition of diluted H3PO4 before mixing with Fe^VI solution to achieve the desired reaction pH at 8.00±0.04. […] No test contaminants were detected in these waters, and the basic physico-chemical parameters are pH, 8.36, UV254, 0.071 and UV400, 0.006 for river water; and pH, 9.43, UV254, 0.202, and UV400, 0.017 for lake water. […]

Assay [3] can be described thus: Oxidation of individual organic contaminants by Fe^VI with or without S2O3^2− in buffered ultrapure water, HPLC. It is filed as physicochemical. The settings on record: for partial oxidation by Fe^VI without S2O3^2−: ratio 25:1 [Fe^VI]:[contaminants], Fe^VI 100.0 μM, pH 8.00, 30 seconds. As for the experimental part:
To test liquid ferrate solutions using second approach, batch experiments were conducted in a series of 100 mL glass jars under constant stirring rate (400 rpm) with a magnetic stirrer. Oxidation of each micropollutant or their mixtures by Fe^VI with or without S2O3^2− was initiated by mixing equal solution volumes of 10 mL, and the final reaction solutions were kept at 8.00±0.04.
as §2
as §3, with “conditions.” for “conditions. All experiments were carried out at room temperature, and were at least in triplicates.”

For assay [4] the following is noted: pH 8.0; cited from earlier work.

On to `NC(=O)N1c2ccccc2C=Cc2ccccc21` [CMZ, Carbamazepine], for which, in assay [1], the “removal by Fe^VI—S2O3^2− in lake water” value is “about 50%”. Besides, the “removal by Fe^VI—S2O3^2− in river water” value in assay [2] is “about 80%”. Also, the “partial oxidation by Fe^VI without S2O3^2−” value in assay [3] is reported as 25.11%.

For the compound `CCN1CCN(c2cc3c(cc2F)c(=O)c(C(=O)O)cn3C2CC2)CC1` [ENR, Enrofloxacin], the “removal by Fe^VI—S2O3^2− in lake water” value in assay [1] was “about 50%”. Further, in assay [2], the “removal by Fe^VI—S2O3^2− in river water” value is “about 80%”. In assay [3], the “partial oxidation by Fe^VI without S2O3^2−” value was determined as 41.02%.

As to `COc1cc(Cc2cnc(N)nc2N)cc(OC)c1OC` [TMP, Trimethoprim], the “removal by Fe^VI—S2O3^2− in lake water” value in assay [1] is reported as “about 80%”. Besides, the “oxidation of TMP by Fe^VI—S2O3^2−” value in assay [3] (molar ratio [S2O3^2−]:[Fe^VI] 0.125, TMP 5.0 μM, Fe(VI) 100.0 μM, pH 8.0, 30 seconds) is listed as 100%. Moreover, the “elimination of TMP by Fe^VI—S2O3^2−” value in assay [3] (molar ratio [S2O3^2−]:[Fe^VI] 5.0, TMP 5.0 μM, Fe(VI) 100.0 μM, pH 8.0, 30 seconds) is reported as “about 4%”. Besides, the “partial oxidation by Fe^VI without S2O3^2−” value in assay [3] was found to be 22.04%. Also, the “oxidation of TMP by Fe^VI” value in assay [3] (without S2O3^2−, TMP 5.0 μM, Fe(VI) 100.0 μM, pH 8.0, quenched after 30 seconds, oxygenated) is listed as “about 16%”.

As for Potassium ferrate [Fe^VI], the “k, reactivity of Fe^VI with DMSO” value in assay [4] is on record as “about 1 M^−1 s^−1”.

For `COc1cc(NS(=O)(=O)c2ccc(N)cc2)nc(OC)n1` [SMX, Sulfadimethoxine], the “removal by Fe^VI—S2O3^2− in lake water” value in assay [1] is reported as “about 80%”. The “partial oxidation by Fe^VI without S2O3^2−” value in assay [3] came out at 47.27%.

Consider `O=C(O)Cc1ccccc1Nc1c(Cl)cccc1Cl` [DCF, Diclofenac], for which the “removal by Fe^VI—S2O3^2− in lake water” value in assay [1] is recorded as “about 80%”. In assay [3], the “partial oxidation by Fe^VI without S2O3^2−” value worked out at 20.85%.

In the case of `CC(C)NCC(O)COc1cccc2ccccc12` (stereo not drawn) [PPN, Propranolol], in assay [1], the “removal by Fe^VI—S2O3^2− in lake water” value is “about 80%”. Besides, the “partial oxidation by Fe^VI without S2O3^2−” value in assay [3] is 32.46%.
